Reference: article PMC6254011, “Design, Synthesis and Anti-HIV Integrase Evaluation of 4-Oxo-4H-quinolizine-3-carboxylic Acid Derivatives” (Molecules, 2009)

Tests used:
[1] = molecular target: T1, recombinant HIV integrase (Human immunodeficiency virus type 1 group M subtype B, UniProt P04585); test: HIV integrase inhibition assay (microtiter plate, biotin donor DNA / digoxigenin target DNA, colorimetric); format: biochemical; conditions: total inhibitory effect (3′ process reaction and strand transfer reaction), initial concentration 100 μg/mL, class symbol; for inhibition at 100 µg/mL: read-out: IC50 (μg/mL)
T1 construct: recombinant HIV integrase
From the text: The target compounds 8, 9, 12, 14 were screened against purified HIV IN to determine any potential inhibitory activity. Thus, a synthesized 30 oligonucleotide and a 20 oligonucleotide were used as donor DNA and target DNA, respectively, which were purchased from Shanghai Sangon Biological Engineering Technology & Services Co. Ltd. The donor DNA was biotinylated at the 5′ end (5′ bio-DNA) and immobilized on streptavidin-coated 96-well microtiter plates. To the donor DNA streptavidin-coated 96-well microtiter plate were added test sample, 3' digoxygenin-labeled target DNA (3' dig-DNA) and recombinant HIV integrase and subjected to incubation in optimized condition.
The plate was further washed with phosphate-buffered saline (PBS) containing 0.1% Tween®-20 and anti-digoxigenin-peroxidase (POD, 100 µL) was added to each well. After incubation at 37°C for 60 min, the plate was washed with PBS containing 0.1% Tween®-20. The digoxygenin-labeled products were visualized by adding a POD substrate, tetramethylbenzidine (TMB). The colorimetric reaction was stopped by addition of 0.5 mol/L H2SO4 (100 µL), and the absorbance was measured at 450 nm on a microplate reader. The total inhibitory effect (including inhibiting 3′ process reaction and strand transfer reaction) were obtained by comparing the absorbance of drug group with control group (without test compound).

[2] = Mg2+ binding by UV-Vis titration in CH3CN; format: physicochemical
Procedure: Inspirited by this assumption, preliminary ion binding experiments were also carried out by UV-Vis spectroscopy, using compound 14a as an example. […] As the Mg^2+ concentration (as perchlorate salt) increased, the absorption intensity of the peak at 414 nm first decreased and then the wavelength shifted blue to around 402 nm. […] However, the Mg^2+ induced a blue shift of the absorption curve of compound 14a. Similar behaviors were also observed for other divalent metals, including Mn^2+, Co^2+, Cu^2+, Ca^2+ and Ni^2+ (not shown in Figure 3).
Figure 2 Changes of UV-vis spectra with 14a in CH3CN on addition of 0-16×10^-6 mol·L^-1 of [Mg^2+] at 25 °C. Conditions: [Mg^2+] =2 × 10^-3 M. [14a] = 2 × 10^-5 MBlack: 0×10^-6 mol·L^-1, blue: 2×10^-6 mol·L^-1, red: 4×10^-6 mol·L^-1, navy: 6×10^-6 mol·L^-1, brown: 8×10^-6 mol·L^-1, green: 10×10^-6 mol·L^-1, dark cyan: 12×10^-6 mol·L^-1, brass: 16×10^-6 mol.L^-1.
Figure 3 UV-Vis absorption spectra of free 14a and 14a in the presence of K^+, Na^+ or Mg^2+ ion in CH3CN solution. Conditions: [14a] = 2 × 10^-5 M; [Mg^2+] = [K^+] = [Na^+] = 2×10^-3 M; Black: 14a, blue: Na^+ complex, red: K^+ complex, navy: Mg^2+ complex.

[3] = Solubility in water (qualitative remark); format: physicochemical

Row | Compound | IC50 (μg/mL) [1] | inhibition at 100 µg/mL [1] [%] | melting point [°C] | change of UV-Vis absorption in the presence of Na+ or K+ ([2]; 100-fold equivalent amount of Na+ or K+) | change of UV-Vis absorption curve upon addition of Mg2+ ([2]; [14a] = 2 × 10^-5 M) | solubility in water [3]
1 | 1-(3,4-Dimethoxystyrylcarboxylamino)-4-oxo-4H-quinolizine-3-carboxylic acid [9b] | -^2 (“-” indicates that the HIV-IN inhibitory effect was less than 50% at the initial concentration) | – | – | – | – | –
2 | O=C(O)c1cc(NS(=O)(=O)c2ccccc2)c2ccccn2c1=O [8a, 1-Phenylsulfonamido-4-oxo-4H-quinolizine-3-carboxylic acid] | – | < 50 | 245 to 247 | – | – | –
3 | Cc1ccc(S(=O)(=O)Nc2cc(C(=O)O)c(=O)n3ccccc23)cc1 [8b, 1-p-Methylphenylsulfonamido-4-oxo-4H-quinolizine-3-carboxylic acid] | – | < 50 | > 300 | – | – | –
4 | O=C(O)c1cc(NS(=O)(=O)c2ccc(Cl)cc2)c2ccccn2c1=O [8c, 1-p-Chlorophenylsulfonamido-4-oxo-4H-quinolizine-3-carboxylic acid] | – | < 50 | > 300 | – | – | –
5 | COc1ccc(S(=O)(=O)Nc2cc(C(=O)O)c(=O)n3ccccc23)cc1 [8d, 1-p-Methoxyphenylsulfonamido-4-oxo-4H-quinolizine-3-carboxylic acid] | – | < 50 | > 300 | – | – | –
6 | O=C(O)c1cc(NS(=O)(=O)c2ccc([N+](=O)[O-])cc2)c2ccccn2c1=O [8e, 1-p-Nitrophenylsulfonamido-4-oxo-4H-quinolizine-3-carboxylic acid] | – | < 50 | > 300 | – | – | –
7 | COc1cc(C(=O)Nc2cc(C(=O)O)c(=O)n3ccccc23)cc(OC)c1OC [9a, 1-(3,4,5-Trimethoxyphenylcarbonylamino)-4-oxo-4H-quinolizine-3-carboxylic acid] | – | < 50 | 280 to 282 | – | – | –
8 | O=C(O)c1cc(-c2nc3ccccc3[nH]2)c2ccccn2c1=O [14a, 1-(1H-Benzimidazol-2-yl)-4-oxo-4H-quinolizine-3-carboxylic acid] | – | < 50 | > 300 | no obvious change | two-step shift of the absorption curve | low solubility
9 | O=C(O)c1cc(-c2nc3cc(Cl)ccc3[nH]2)c2ccccn2c1=O [14b, 1-(5(6)-Chloro-1H-benzimidazol-2-yl)-4-oxo-4H-quinolizine-3-carboxylic acid] | – | < 50 | > 300 | – | – | –
10 | COc1ccc2[nH]c(-c3cc(C(=O)O)c(=O)n4ccccc34)nc2c1 [14c, 1-(5(6)-Methoxy-1H-benzimidazol-2-yl)-4-oxo-4H-quinolizine-3-carboxylic acid] | – | < 50 | > 300 | – | – | –
11 | O=C(O)c1cc(-c2nc3ccccc3s2)c2ccccn2c1=O [compound 12, 1-benzothiazol-2-yl-4-oxo-4H-quinolizine-3-carboxylic acid] | – | < 50 | > 300 | – | – | –
